Assay results from ChEMBL document CHEMBL1201862, “PubChem BioAssay data set” (2004).
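In this assay, cells in 96-well plates receive the compound at five concentrations for 48 hours. Endpoints are linearly interpolated between the surrounding concentrations. At the GI50, growth is halved.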 Calls of active or inactive are those of the source. Cut-off read from the data, not from the text of the source: active = GI50 up to about 1.1 µM and inactive = higher.

Legend:
Assay in all cases: growth of human tumour cells (NCI), 48 h
RPMI-8226 = tested on: RPMI-8226
SK-MEL-28 = tested on: SK-MEL-28
EKVX = tested on: EKVX
SK-MEL-5 = tested on: SK-MEL-5
TK-10 = tested on: TK-10
SK-MEL-2 = tested on: SK-MEL-2
RXF 393 = tested on: RXF 393
SW-620 = tested on: SW-620
KM12 = tested on: KM12
NCI-H23 = tested on: NCI-H23
K562 = tested on: K562
U-251 = tested on: U-251
NCI-H522 = tested on: NCI-H522
HOP-92 = tested on: HOP-92
UACC-62 = tested on: UACC-62

Row | SMILES | GI50 (RPMI-8226) | GI50 (SK-MEL-28) | GI50 (EKVX) | GI50 (SK-MEL-5) | GI50 (TK-10) | GI50 (SK-MEL-2) | GI50 (RXF 393) | GI50 (SW-620) | GI50 (KM12) | GI50 (NCI-H23) | GI50 (K562) | GI50 (U-251) | GI50 (NCI-H522) | GI50 (HOP-92) | GI50 (UACC-62)
1 | COC(=O)Cc1cc(=O)n2c3ccccc3n(C)c2c1C#N | > 100 µM (inactive) | > 100 µM (inactive) | > 100 µM (inactive) | 52.2 µM (inactive) | > 100 µM (inactive) | > 100 µM (inactive) | > 100 µM (inactive) | > 100 µM (inactive) | > 100 µM (inactive) | > 100 µM (inactive) | > 100 µM (inactive) | > 100 µM (inactive) | – | – | –
2 | COC1OC(CO)C(O)C(NC(=O)N(C)N=O)C1O (stereo not drawn) | > 100 µM (inactive) | > 100 µM (inactive) | > 100 µM (inactive) | > 100 µM (inactive) | > 100 µM (inactive) | > 100 µM (inactive) | > 100 µM (inactive) | > 100 µM (inactive) | > 100 µM (inactive) | > 100 µM (inactive) | > 100 µM (inactive) | > 100 µM (inactive) | > 100 µM (inactive) | > 100 µM (inactive) | –
3 | COc1ccc(C(=O)C(C(=O)C(=O)Nc2nc3ccc(OC)cc3s2)c2ccc(OC)cc2)cc1 (stereo not drawn) | > 100 µM (inactive) | > 100 µM (inactive) | > 100 µM (inactive) | 55.2 µM (inactive) | > 100 µM (inactive) | > 100 µM (inactive) | – | > 100 µM (inactive) | > 100 µM (inactive) | > 100 µM (inactive) | > 100 µM (inactive) | > 100 µM (inactive) | – | > 100 µM (inactive) | > 100 µM (inactive)
4 | CN(C(=O)C12C3C4C1C1C2C3C41C(=O)N(C)C(C)(C)C)C(C)(C)C (stereo not drawn) | – | > 50 µM (inactive) | > 50 µM (inactive) | > 50 µM (inactive) | – | – | – | > 50 µM (inactive) | – | – | > 50 µM (inactive) | > 50 µM (inactive) | > 50 µM (inactive) | > 50 µM (inactive) | > 50 µM (inactive)
5 | CC1(C)CC(/C=C2/OC(=O)c3ccccc32)=C(C(N)=O)C(=O)O1 | > 100 µM (inactive) | > 100 µM (inactive) | > 100 µM (inactive) | > 100 µM (inactive) | – | > 100 µM (inactive) | – | > 100 µM (inactive) | > 100 µM (inactive) | > 100 µM (inactive) | > 100 µM (inactive) | > 100 µM (inactive) | > 100 µM (inactive) | – | > 100 µM (inactive)
6 | COc1ccc(C(=O)NCCN(C)C)c2nc3ccccc3nc12 | 3.21 µM (inactive) | 5.89 µM (inactive) | 6.41 µM (inactive) | 4.81 µM (inactive) | 5.18 µM (inactive) | 4.01 µM (inactive) | 11.4 µM (inactive) | 2.7 µM (inactive) | 4.82 µM (inactive) | 4.72 µM (inactive) | 2.05 µM (inactive) | 4.79 µM (inactive) | 11.7 µM (inactive) | 9.51 µM (inactive) | 5.38 µM (inactive)
7 | COc1ccc(N2C(=O)[C@@H](N=[N+]=[N-])[C@@H]2[C@H]2COC(C)(C)O2)cc1 | > 100 µM (inactive) | > 100 µM (inactive) | > 100 µM (inactive) | > 100 µM (inactive) | – | > 100 µM (inactive) | > 100 µM (inactive) | > 100 µM (inactive) | > 100 µM (inactive) | > 100 µM (inactive) | > 100 µM (inactive) | > 100 µM (inactive) | > 100 µM (inactive) | > 100 µM (inactive) | 75 µM (inactive)
8 | O=C(Nc1ccccc1C(=O)O)C(=O)C(C(=O)c1ccccc1-c1ccccc1)C1OC(=O)c2ccccc21 (stereo not drawn) | 25.2 µM (inactive) | 19.4 µM (inactive) | 23.4 µM (inactive) | 19.2 µM (inactive) | 13.9 µM (inactive) | 38 µM (inactive) | 13.6 µM (inactive) | 27.3 µM (inactive) | 18 µM (inactive) | 22.8 µM (inactive) | 36.1 µM (inactive) | 15.4 µM (inactive) | 16.2 µM (inactive) | – | 16.6 µM (inactive)
9 | CN(C)CCNC(=O)c1cccc2nc3cc(Cl)ccc3nc12 | 3.07 µM (inactive) | 2.9 µM (inactive) | 4.25 µM (inactive) | 3.19 µM (inactive) | 2.7 µM (inactive) | 2.47 µM (inactive) | 2.15 µM (inactive) | 1.06 µM (active) | 2.51 µM (inactive) | 2 µM (inactive) | 1.18 µM (inactive) | 2.86 µM (inactive) | 2.92 µM (inactive) | 5.77 µM (inactive) | 3.69 µM (inactive)
10 | N#CC(C(=O)CCCC(=O)Nc1ccc(Cl)cc1Cl)c1ccc(Cl)cc1 (stereo not drawn) | > 100 µM (inactive) | > 100 µM (inactive) | – | – | > 100 µM (inactive) | > 100 µM (inactive) | – | > 100 µM (inactive) | > 100 µM (inactive) | > 100 µM (inactive) | > 100 µM (inactive) | – | > 100 µM (inactive) | > 100 µM (inactive) | > 100 µM (inactive)
11 | N#C/C(=C\c1ccccc1O)C(N)=O | 60.8 µM (inactive) | > 100 µM (inactive) | 59.4 µM (inactive) | > 100 µM (inactive) | > 100 µM (inactive) | 62.1 µM (inactive) | 25.7 µM (inactive) | 76.2 µM (inactive) | 56.5 µM (inactive) | 82.4 µM (inactive) | 51.2 µM (inactive) | > 100 µM (inactive) | 21.9 µM (inactive) | 32.3 µM (inactive) | 50.1 µM (inactive)
12 | CC(N)Cc1ccc(C(=O)Cl)cc1 (stereo not drawn) | > 100 µM (inactive) | > 100 µM (inactive) | > 100 µM (inactive) | > 100 µM (inactive) | > 100 µM (inactive) | > 100 µM (inactive) | > 100 µM (inactive) | > 100 µM (inactive) | > 100 µM (inactive) | > 100 µM (inactive) | > 100 µM (inactive) | > 100 µM (inactive) | > 100 µM (inactive) | – | > 100 µM (inactive)
13 | CN(C)C(=S)/N=c1\ss/c(=N\S(=O)(=O)c2ccccc2)n1C | > 100 µM (inactive) | > 100 µM (inactive) | > 100 µM (inactive) | > 100 µM (inactive) | > 100 µM (inactive) | > 100 µM (inactive) | > 100 µM (inactive) | > 100 µM (inactive) | > 100 µM (inactive) | > 100 µM (inactive) | > 100 µM (inactive) | > 100 µM (inactive) | > 100 µM (inactive) | > 100 µM (inactive) | > 100 µM (inactive)
14 | Nc1ccn(CCOC(=O)c2ccccc2)c(=O)n1 | > 100 µM (inactive) | > 100 µM (inactive) | > 100 µM (inactive) | > 100 µM (inactive) | > 100 µM (inactive) | > 100 µM (inactive) | > 100 µM (inactive) | > 100 µM (inactive) | > 100 µM (inactive) | – | > 100 µM (inactive) | > 100 µM (inactive) | > 100 µM (inactive) | > 100 µM (inactive) | > 100 µM (inactive)
15 | CCCCOCc1cc(CN2CCN(C)CC2)c(O)c2ncccc12 | 3.29 µM (inactive) | 31.4 µM (inactive) | 23.5 µM (inactive) | 4.02 µM (inactive) | > 100 µM (inactive) | 25.3 µM (inactive) | 36.6 µM (inactive) | 9.89 µM (inactive) | 21.1 µM (inactive) | 14.5 µM (inactive) | 3.26 µM (inactive) | 12.5 µM (inactive) | 26.4 µM (inactive) | 55.1 µM (inactive) | 13.9 µM (inactive)
16 | CCOC(=O)N1C(c2ccccc2)C=CC(c2ccccc2)N1C(=O)OCC (stereo not drawn) | > 100 µM (inactive) | > 100 µM (inactive) | > 100 µM (inactive) | > 100 µM (inactive) | > 100 µM (inactive) | > 100 µM (inactive) | > 100 µM (inactive) | > 100 µM (inactive) | > 100 µM (inactive) | > 100 µM (inactive) | > 100 µM (inactive) | > 100 µM (inactive) | – | > 100 µM (inactive) | > 100 µM (inactive)
17 | OCCc1cnco1 | > 100 µM (inactive) | > 100 µM (inactive) | > 100 µM (inactive) | > 100 µM (inactive) | > 100 µM (inactive) | – | > 100 µM (inactive) | > 100 µM (inactive) | > 100 µM (inactive) | > 100 µM (inactive) | > 100 µM (inactive) | > 100 µM (inactive) | > 100 µM (inactive) | – | > 100 µM (inactive)
18 | O=C(O)CNc1c2ccccc2[n+]([O-])c2ccccc12 | 31.8 µM (inactive) | 42.2 µM (inactive) | > 100 µM (inactive) | 45.5 µM (inactive) | > 100 µM (inactive) | > 100 µM (inactive) | – | > 100 µM (inactive) | > 100 µM (inactive) | 60.7 µM (inactive) | 13.9 µM (inactive) | > 100 µM (inactive) | 50.1 µM (inactive) | – | 67.8 µM (inactive)
19 | CC(C)(C)c1ccnc(/N=C2\N/C(=N\c3cc(C(C)(C)C)ccn3)c3ccccc32)c1 | – | 24.4 µM (inactive) | 57.9 µM (inactive) | – | 21.4 µM (inactive) | 56.9 µM (inactive) | 22.3 µM (inactive) | 42.7 µM (inactive) | 41.8 µM (inactive) | 30.7 µM (inactive) | 41.3 µM (inactive) | 26.1 µM (inactive) | 21.6 µM (inactive) | 22.6 µM (inactive) | 50.1 µM (inactive)
20 | CN1C(=O)C2C3C=C4c5ccccc5N(c5ccccc5)C4(C2C1=O)[C@H]1C(=O)N(C)C(=O)[C@@H]31 (stereo partly drawn) | > 100 µM (inactive) | > 100 µM (inactive) | > 100 µM (inactive) | – | > 100 µM (inactive) | > 100 µM (inactive) | – | > 100 µM (inactive) | > 100 µM (inactive) | > 100 µM (inactive) | > 100 µM (inactive) | > 100 µM (inactive) | > 100 µM (inactive) | > 100 µM (inactive) | > 100 µM (inactive)
